From patent US10472341B2, “Bicyclic tetrahydrothiazepine derivatives useful for the treatment of neoplastic and/or infectious diseases” (APEIRON BIOLOGICS AG, priority 2015, dated 2019)
Where a name gives a salt, the structure may show the parent alone.

Experiments:
NK cells = test: NK cell stimulation by IL-2: IFN-gamma and TNF-alpha release; assay type: cell-based, human; details: for IFN-gamma / TNF-alpha: IL-2 stimulation
Experimental: Isolated NK cells were plated in Xvivo medium at 1.5*10^5 cells per in 96 well culture plates and stimulated with 50 ng/ml IL-2 (Aldesleukin) where indicated. Cytokine secretion was determined by ELISA, immune cell activation by flow cytometry (Beckman-Coulter Abs CD25-PC5, CD69-PC7 and acquisition on Beckman-Coulter Gallios) using 7-AAD exclusion as criterion for living cells. IL-2 is a key factor for survival, proliferation and activation of NK cells, thus linking adaptive immunity mediated by T cells with the innate immunity mediated by NK cells. Especially CD8 T cells release IL-2 locally at the site of antigen-encounter in the tumor, and thus support and activate NK cell anti-tumor functions. Compound example 67 has been chosen as an example. […] Thus, compounds have a unique potential to support the interlinked anti-tumor immunity of T and NK cells in the physiological context in vivo.

[1] = system: CD8-positive immune cells & M21 melanoma cells; test: CD8-positive immune cells alone or in co-culture with M21 melanoma cells: IFN-gamma, IL-2, granzyme; assay type: cell-based, human
Experimental: Isolated PBMCs, NK cells or CD8 positive cells were plated in Xvivo medium at 1.5*10^5 cells per in 96 well culture plates in the presence of 0.3*10^4 tumor cells where indicated. Cytokine secretion was determined by ELISA, immune cell activation (using Beckman-Coulter Abs CD25-PC5, CD69-PC7), cell viability and numbers by flow cytometry (Beckman-Coulter FC500 or Gallios) using 7-AAD exclusion as criterion for living cells. CD8-positive immune cells were isolated from PBMCs and were incubated with and without compound example 67, either alone or in co-culture with M21 melanoma cells.

[2] = system: TCR-mediated activation of CD4 and CD8 cells; test: Anti-CD3 PD model in mice: CD69 on splenic T-cells, plasma cytokines; assay type: in vivo, mouse; details: for CD4+ / CD8+ / CD69+ / CD69+ in CD4+ / CD69+ in CD8+: spleen flowcytometry; for CD4+ / CD8+ / CD69+ / CD69+ in CD4+ / CD69+ in CD8+ / IFN-γ / IL-2 / IL-6 / IL-10 / TNF-α: t=4.0 h; for IFN-γ / IL-2 / IL-6 / IL-10 / TNF-α: terminal plasma
Excerpt: Detection of antigen-specific T cell activation and proliferation in vivo is technically challenging since it requires the development and validation of research reagents to detect low-frequency T cells specific for a cognate antigen and also the establishment of specific measurement procedure for following cellular activation and/or proliferation in blood or secondary lymphoid organs. As a surrogate model for the determination of polyclonal T-cell activation in mice, a pharmacological system was designed and employed where adult […] mice were injected with anti-CD3 antibody to elicit TCR triggering and responses of a broad population of peripheral T-cells. To quantitatively determine T-cell responses, systemic IL-2, TNF-alpha and IFN-gamma levels were measured in blood serum as well as the expression of the early activation marker CD69 on splenic CD4 or CD8 T-cells […] after treatment.
It was investigated whether the oral application of compound affected the low-level of activation of a major subset of splenic T-cells by injection of anti-CD3 antibody as exemplified by increased serum levels of IL-2, IFN-gamma and TNF-alpha vis-à-vis untreated mice as well as an increase of CD69-expressing splenic T-cells from 2-10% to 15-20%.
[…] Compound example 1 was dosed twice orally as suspension (0.5% methylcellulose in water) at t=−1.0 h and t=1.0 h. • 3. Mice were terminated at t=4.0 h and their spleens and plasma harvested for flow cytometry and cytokine analysis respectively. • 4. Cytokine concentrations in terminal plasma samples were determined with MSD kits according to manufacturer's instructions.

[3] = 0.03 μM, CD8 only (no tumor cells)
[4] = 0.10 μM, CD8 only (no tumor cells)
[5] = 0.30 μM, CD8 only (no tumor cells)
[6] = 1 μM, CD8 only (no tumor cells)
[7] = 3 μM, CD8 only (no tumor cells)
[8] = 10 μM, CD8 only (no tumor cells)

CCCCNC(=O)c1ccc2c(c1)N(Cc1ccc(OC(F)(F)F)cc1)C(=O)[C@@H](N)CS2(=O)=O.Cl [Example 67, (3R)-3-amino-N-butyl-1,1,4-trioxo-5-{[4-(trifluoromethoxy)phenyl]methyl}-2,3,4,5-tetrahydro-1λ^6,5-benzothiazepine-7-carboxamide hydrochloride]
IFN-gamma (NK cells; 0.03 μM): 0.71 ng/mL
TNF-alpha (NK cells; 0.03 μM): 0.04 ng/mL
IFN-gamma (NK cells; 0.1 μM): 0.72 ng/mL
TNF-alpha (NK cells; 0.1 μM): 0.03 ng/mL
IFN-gamma (NK cells; 0.3 μM): 1.00 ng/mL
TNF-alpha (NK cells; 0.3 μM): 0.06 ng/mL
IFN-gamma (NK cells; 1 μM): 1.23 ng/mL
TNF-alpha (NK cells; 1 μM): 0.09 ng/mL
IFN-gamma (NK cells; 3 μM): 1.50 ng/mL
TNF-alpha (NK cells; 3 μM): 0.10 ng/mL
IFN-gamma (NK cells; 10 μM): 1.40 ng/mL
TNF-alpha (NK cells; 10 μM): 0.12 ng/mL
IFN-gamma (NK cells; 30 μM): 1.22 ng/mL
TNF-alpha (NK cells; 30 μM): 0.14 ng/mL
responsiveness of NK cells upon IL-2 activation (release of IFN-gamma and TNF-alpha) (NK cells; NK cells, IL-2): can directly enhance the responsiveness of NK cells upon IL-2 activation
Granzyme [ng/ml] avg ([1]; 0.03 μM, CD8 cells & M21): 0.10 ng/mL
IFN-gamma [ng/ml] avg ([1]; 0.03 μM, CD8 cells & M21): 0.06 ng/mL
IL-2 [ng/ml] avg ([1]; 0.03 μM, CD8 cells & M21): 1.32 ng/mL
Granzyme [ng/ml] avg [1, 3]: 0.01 ng/mL
IFN-gamma [ng/ml] avg [1, 3]: Below
IL-2 [ng/ml] avg [1, 3]: Below
Granzyme [ng/ml] avg ([1]; 0.10 μM, CD8 cells & M21): 0.12 ng/mL
IFN-gamma [ng/ml] avg ([1]; 0.10 μM, CD8 cells & M21): 0.15 ng/mL
IL-2 [ng/ml] avg ([1]; 0.10 μM, CD8 cells & M21): 2.13 ng/mL
Granzyme [ng/ml] avg [1, 4]: 0.01 ng/mL
IFN-gamma [ng/ml] avg [1, 4]: Below
IL-2 [ng/ml] avg [1, 4]: Below
Granzyme [ng/ml] avg ([1]; 0.30 μM, CD8 cells & M21): 0.18 ng/mL
IFN-gamma [ng/ml] avg ([1]; 0.30 μM, CD8 cells & M21): 0.20 ng/mL
IL-2 [ng/ml] avg ([1]; 0.30 μM, CD8 cells & M21): 2.75 ng/mL
Granzyme [ng/ml] avg [1, 5]: 0.01 ng/mL
IFN-gamma [ng/ml] avg [1, 5]: Below
IL-2 [ng/ml] avg [1, 5]: Below
Granzyme [ng/ml] avg ([1]; 1 μM, CD8 cells & M21): 0.34 ng/mL
IFN-gamma [ng/ml] avg ([1]; 1 μM, CD8 cells & M21): 0.40 ng/mL
IL-2 [ng/ml] avg ([1]; 1 μM, CD8 cells & M21): 3.38 ng/mL
Granzyme [ng/ml] avg [1, 6]: 0.02 ng/mL
IFN-gamma [ng/ml] avg [1, 6]: Below
IL-2 [ng/ml] avg [1, 6]: Below
Granzyme [ng/ml] avg ([1]; 3 μM, CD8 cells & M21): 0.43 ng/mL
IFN-gamma [ng/ml] avg ([1]; 3 μM, CD8 cells & M21): 0.54 ng/mL
IL-2 [ng/ml] avg ([1]; 3 μM, CD8 cells & M21): 3.44 ng/mL
Granzyme [ng/ml] avg [1, 7]: 0.01 ng/mL
IFN-gamma [ng/ml] avg [1, 7]: Below
IL-2 [ng/ml] avg [1, 7]: Below
Granzyme [ng/ml] avg ([1]; 10 μM, CD8 cells & M21): 0.37 ng/mL
IFN-gamma [ng/ml] avg ([1]; 10 μM, CD8 cells & M21): 0.68 ng/mL
IL-2 [ng/ml] avg ([1]; 10 μM, CD8 cells & M21): 3.26 ng/mL
Granzyme [ng/ml] avg [1, 8]: 0.02 ng/mL
IFN-gamma [ng/ml] avg [1, 8]: Below
IL-2 [ng/ml] avg [1, 8]: Below
tumor-cell contact mediated release of granzyme ([1]; CD8-positive immune cells in co-culture with M21): enhanced
production of IL-2 and IFN-gamma ([1]; CD8-positive immune cells in co-culture with M21 melanoma cells): enhanced production of both cytokines specifically upon tumor cell contact
enhancement of IL-2 and IFN-gamma production ([1]; CD8-positive immune cells in the absence of tumor cells): such effect was not detected in the absence of tumor cells

N[C@H]1CS(=O)(=O)c2cc(F)c(C(=O)NC3CC3(F)F)cc2N(Cc2ccc(Cl)cc2)C1=O (stereo partly drawn) [Example 1, (3R)-3-amino-5-[(4-chlorophenyl)methyl]-N-(2,2-difluorocyclopropyl)-8-fluoro-1,1,4-trioxo-2,3,4,5-tetrahydro-1λ^6,5-benzothiazepine-7-carboxamide hydrochloride]
TCR-mediated activation of CD4 and CD8 cells in vivo ([2]; mice, anti-CD3 i.p., compound oral, five hours): is able to substantially enhance TCR-mediated activation of CD4 and CD8 cells in vivo
CD4+ ([2]; 25 mg/kg dosed twice orally): 22.95%
CD8+ ([2]; 25 mg/kg dosed twice orally): 16.33%
CD69+ ([2]; 25 mg/kg dosed twice orally): 12.65%
CD69+ in CD4+ ([2]; 25 mg/kg dosed twice orally): 26.75%
CD69+ in CD8+ ([2]; 25 mg/kg dosed twice orally): 32.40%
CD4+ ([2]; 50 mg/kg dosed twice orally): 22.86%
CD8+ ([2]; 50 mg/kg dosed twice orally): 16.42%
CD69+ ([2]; 50 mg/kg dosed twice orally): 17.06%
CD69+ in CD4+ ([2]; 50 mg/kg dosed twice orally): 32.14%
CD69+ in CD8+ ([2]; 50 mg/kg dosed twice orally): 46.44%
CD4+ ([2]; 100 mg/kg dosed twice orally): 23.18%
CD8+ ([2]; 100 mg/kg dosed twice orally): 16.70%
CD69+ ([2]; 100 mg/kg dosed twice orally): 28.58%
CD69+ in CD4+ ([2]; 100 mg/kg dosed twice orally): 47.50%
CD69+ in CD8+ ([2]; 100 mg/kg dosed twice orally): 63.96%
IFN-γ ([2]; 25 mg/kg dosed twice orally): 5.26 pg/mL
IL-2 ([2]; 25 mg/kg dosed twice orally): 391.33 pg/mL
IL-6 ([2]; 25 mg/kg dosed twice orally): 461.65 pg/mL
IL-10 ([2]; 25 mg/kg dosed twice orally): 39.88 pg/mL
TNF-α ([2]; 25 mg/kg dosed twice orally): 46.78 pg/mL
IFN-γ ([2]; 50 mg/kg dosed twice orally): 12.99 pg/mL
IL-2 ([2]; 50 mg/kg dosed twice orally): 849.50 pg/mL
IL-6 ([2]; 50 mg/kg dosed twice orally): 1186.80 pg/mL
IL-10 ([2]; 50 mg/kg dosed twice orally): 50.88 pg/mL
TNF-α ([2]; 50 mg/kg dosed twice orally): 97.78 pg/mL
IFN-γ ([2]; 100 mg/kg dosed twice orally): 50.77 pg/mL
IL-2 ([2]; 100 mg/kg dosed twice orally): 1413.82 pg/mL
IL-6 ([2]; 100 mg/kg dosed twice orally): 2185.05 pg/mL
IL-10 ([2]; 100 mg/kg dosed twice orally): 68.38 pg/mL
TNF-α ([2]; 100 mg/kg dosed twice orally): 170.92 pg/mL
